In US9332753B2, “Plant volatiles based on R-curcumene” (Keygene N.V., priority 2009, dated 2016):
Entries after “also recorded” stand apart in the source; their conditions may differ.

Experiments:
[1] = system: B. tabaci; experiment: Correlation of identified headspace volatiles with whitefly repellence ranking (stepwise linear regression, MANOVA); parameters: species or system Bemisia tabaci biotype Q; details: for Effect (semiochemical associated to B. tabaci repellence or attraction): first Table 5; for association (B. tabaci repellence or attraction): second Table 5; for Effect on insects: volatile related to whitefly repellence or attraction (Table 1)
From the text: In a large experiment (see Example 2), the headspace of 16 wild tomato accessions and 5 cultivated tomato lines were sampled and analyzed (6 repeats). In total 51 compounds were identified to be present in the captured headspace. Furthermore, the level of repellency/attraction of each of the 21 tomato accessions was established in free choice bioassays with B. tabaci (biotype Q), using a ranking scale of 1-7 (1=highest repellency to 7=lowest repellency). Next, the identified volatile compounds were correlated to the repellency/attraction score of each tomato accession through a linear regression analysis.
The headspace of 16 wild tomatoes and 5 cultivated tomatoes (Table 4) was collected. Undisturbed 3-weeks old tomato plants were transferred to 40-L desiccators. The headspace was sampled during 24 h including a 16 h light period, by trapping of the volatile components as described above. […] Each accession was sampled 6 times.
In a statistical analysis the correlation between the identified components of the tomato headspace and the ranking of whitefly repellence measured in the bioassays was made. Using two approaches, a stepwise-linear regression analysis and a MANOVA, 8 volatiles were identified to be correlated to whitefly repellence, whereas 24 other volatile compounds were eliminated as non-relevant for repellency or attraction.

[2] = system: B. tabaci; experiment: Free choice bioassay with pure volatiles or mixtures added to one of four cv Moneymaker plants; format: in vivo, Bemisia tabaci biotype Q (Almeria population); details: for behavioural effect (significance of effect on B. tabaci behaviour in choice-assays): significance stars, key not given; for effect on whitefly behaviour: one of four Moneymaker plants treated
From the text: For bioassays with headspace (total headspace or single compounds) four potted tomato plants (S. esculentum cv Moneymaker) were placed in a square setup at a distance of 50 cm. One hundred and fifty adult whiteflies were released and recorded as described above. To test the effect of selected headspace components on repellence, synthetic standards (FLUKA) were applied to either 10 filter-papers discs (Whatman, 25 mm diameter) or 10 rubber septa (Sigma Aldrich, Z167258). Prior to loading, the septa were placed in CH2Cl2 for 24 h and air-dried for 3 days (Heath et al., 1986). The paper discs or septa containing volatiles were attached to one of the four plants with metal wire. The position of the treated tomato was randomised. Five minutes after placing the volatiles on the plant, whiteflies were released. For each component at least 8 replications were carried out. Treatments were administered in a setup in which compounds were always added to the same plant in comparison to 3 plants with empty carriers. Prior to each assay with volatiles, the experiment was done with the 4 plants in an untreated setup, in the same position to allow comparison in the same background.
Host preference with and without manipulated headspace by B. tabaci was explored in free choice assays. In each setup four cultivated tomatoes (cv. Moneymaker) were tested as described earlier. For the bioassays with volatiles rubber septa (Sigma Aldrich Z167258) were extracted with CH2Cl2 for 24 hours and dried to the air for 3 days. The desired blend of volatiles was added to the rubber septa in 100 μl hexane. Bioassays with pure components, or mixtures of pure components were carried out as described above.
To positively confirm the correlation between the 7 candidate components and B. tabaci behaviour, host preference was assayed in bioassays with pure components. The desired (blend of) pure volatile chemicals were added, as described above, to the Moneymaker background on filter paper cards. […] The percentage of whiteflies visiting the treated plant decreased with 44% on average (p<0.001) (FIG. 2a) while the untreated plants harboured increased numbers of B. tabaci. […] To assess whether the sum of these three components would yield a greater effect than p-cymene alone, a mixture of p-cymene: gamma-terpinene: beta-myrcene in the same ratio as found in accession LA2560 (1:12:3) was tested. […] Finally, the sesquiterpenes were tested, tomato-derived 7-epi-zingiberene as well as its oxidation product R-curcumene, and zingiberene and its oxidation product S-crucume.

[3] = system: B. tabaci antennae; experiment: Electroantennography (EAG); parameters: species or system Bemisia tabaci
Procedure: Electroantennography (EAG) was employed to confirm the responsiveness of the atennae to 10-3 dilution in paraffin oil (Uvasol, Merck) of the chemicals described. Small pieces of filter paper (2 cm2; Schleicher & Schuell, Dassel, Germany) were soaked with 100 μl of the standard dilution or paraffin oil only (control). The filter paper was inserted into a 10-ml glass syringe (Poulten & Graf GmbH, Wertheim, Germany). A reproducible stimulus was supplied by puffing 5 ml of air over the antenna (Schutz et al., 1999). The EAG response was recorded for each standard dilution. The response to paraffin oil was considered as a negative control and was subtracted from all the reported EAG measurements.

[4] = system: adult whiteflies B. tabaci; details: cited from earlier work
[5] = system: fourth instar larvae of Colorado potato beetle; details: cited from earlier work
[6] = Conversion on exposure to air; format: physicochemical
[7] = system: pests of cut flowers (e.g. B. tabaci); details: fumigant, 10-20 mg/l, after 2-4 hours of exposure; cited from earlier work
[8] = responses of B. tabaci antennae
[9] = n = 5, mean response and scatter, 10^-3 dilution in paraffin oil

CC1=CC2C(CC1)C2(C)C (stereo not shown) [2-carene]
correlation with repellence or attraction of tomato accessions [1]: significantly correlated to the more attractive cultivated S. lycopersicum plants | Effect (semiochemical associated to B. tabaci repellence or attraction) [1]: attraction | association (B. tabaci repellence or attraction) [1]: attraction | Effect on insects [1]: Attractant | behavioural effect (significance of effect on B. tabaci behaviour in choice-assays) [2]: ns | antennal response [3, 8]: 3.9 mV

CCCCCCCCCCCC(C)=O [2-tridecanone]
toxic effect [4]: toxic effect

CCCCCCCCCC(C)=O [2-undecanone]
toxic effect [5]: toxic effect

CC(C)=CCC[C@@H](C)[C@@H]1C=CC(C)=CC1 [7-epi-zingiberene]
correlation with repellence or attraction of tomato accessions [1]: appear to be responsible for rendering the S. habrochaites (former typicum) more unattractive | Effect (semiochemical associated to B. tabaci repellence or attraction) [1]: repellence | association (B. tabaci repellence or attraction) [1]: repellence | Effect on insects [1]: Repellent | effect on whitefly behaviour [2]: clear repellent effect; also recorded: very effective in reducing the number of whitefly visitations | antennal response [3, 9]: 23 (0-53) μV | antennal response [3, 8]: 2.3 mV | stability when exposed to air [6]: rapidly converted to R- and S-curcumene respectively

CC1=CCC(C(C)C)C=C1 (stereo not drawn) [Alpha-phellandrene]
correlation with repellence or attraction of tomato accessions [1]: repellent compounds linked to S. pennelli | association (B. tabaci repellence or attraction) [1]: repellence | Effect on insects [1]: Repellent | antennal response [3, 8]: 2.2 mV

CC1=CC=C(C(C)C)CC1 [Alpha-terpinene]
correlation with repellence or attraction of tomato accessions [1]: repellent compounds linked to S. pennelli | association (B. tabaci repellence or attraction) [1]: repellence | Effect on insects [1]: Repellent | antennal response [3, 8]: 4.1 mV

CC12CCC(CC1)C(C)(C)O2 [Cineole]
mortality [7]: caused mortality

CC(C)=CCC[C@@H](C)c1ccc(C)cc1 [R-curcumene]
correlation with repellence or attraction of tomato accessions [1]: appear to be responsible for rendering the S. habrochaites (former typicum) more unattractive | Effect (semiochemical associated to B. tabaci repellence or attraction) [1]: repellence | association (B. tabaci repellence or attraction) [1]: repellence | Effect on insects [1]: Repellent | effect on whitefly behaviour [2]: clear repellent effect; also recorded: repelled | antennal recognition / sensitivity ([3]; electroantennography): highest sensitivity | antennal response [3, 9]: 50 (8-148) μV | antennal response [3, 8]: 5.0 mV

CC(C)=CCC[C@H](C)c1ccc(C)cc1 [S-curcumene]
Effect (semiochemical associated to B. tabaci repellence or attraction) [1]: repellence | association (B. tabaci repellence or attraction) [1]: repellence | Effect on insects [1]: Repellent | effect on whitefly behaviour [2]: did not appear to repel | antennal response [3, 9]: 27 (3-60) μV | antennal response [3, 8]: 2.7 mV

C=CC(=C)CCC=C(C)C [beta-myrcene]
correlation with repellence or attraction of tomato accessions [1]: repellent compounds linked to S. pennelli | Effect (semiochemical associated to B. tabaci repellence or attraction) [1]: repellence | association (B. tabaci repellence or attraction) [1]: repellence | Effect on insects [1]: Repellent | effect on whitefly behaviour [2]: did not influence whitefly behaviour | behavioural effect (significance of effect on B. tabaci behaviour in choice-assays) [2]: ns | antennal response [3, 8]: ns

C=C1C=CC(C(C)C)CC1 (stereo not drawn) [beta-phellandrene]
correlation with repellence or attraction of tomato accessions [1]: significantly correlated to the more attractive cultivated S. lycopersicum plants | Effect (semiochemical associated to B. tabaci repellence or attraction) [1]: attraction | association (B. tabaci repellence or attraction) [1]: attraction | Effect on insects [1]: Attractant | effect on whitefly behaviour [2]: decreased tomato attractiveness significantly | behavioural effect (significance of effect on B. tabaci behaviour in choice-assays) [2]: ns | antennal response [3, 8]: 2.5 mV

CC1=CCC(C(C)C)=CC1 [gamma-terpinene]
correlation with repellence or attraction of tomato accessions [1]: repellent compounds linked to S. pennelli | Effect (semiochemical associated to B. tabaci repellence or attraction) [1]: repellence | association (B. tabaci repellence or attraction) [1]: repellence | Effect on insects [1]: Repellent | behavioural effect (significance of effect on B. tabaci behaviour in choice-assays) [2]: ns | antennal response [3, 8]: 1.9 mV

C=C(C)[C@H]1CC=C(C)CC1 [limonene]
correlation with repellence or attraction of tomato accessions [1]: significantly correlated to the more attractive cultivated S. lycopersicum plants | Effect (semiochemical associated to B. tabaci repellence or attraction) [1]: attraction | association (B. tabaci repellence or attraction) [1]: attraction | Effect on insects [1]: Attractant | behavioural effect (significance of effect on B. tabaci behaviour in choice-assays) [2]: ns | antennal response [3, 8]: 3.5 mV

Cc1ccc(C(C)C)cc1 [para-cymene]
correlation with repellence or attraction of tomato accessions [1]: repellent compounds linked to S. pennelli | Effect (semiochemical associated to B. tabaci repellence or attraction) [1]: repellence | association (B. tabaci repellence or attraction) [1]: repellence | Effect on insects [1]: Repellent | decrease of percentage of whiteflies visiting the treated plant ([2]; on average, vs same plant in untreated setup, p-cymene 10 μg, mixture ratio 1:12:3): 44% | antennal response [3, 8]: 2.4 mV

C=CCc1ccc2c(c1)OCO2 [safrole]
mortality [7]: caused mortality

CC(C)=CCC[C@H](C)[C@@H]1C=CC(C)=CC1 [zingiberene]
Effect (semiochemical associated to B. tabaci repellence or attraction) [1]: repellence | association (B. tabaci repellence or attraction) [1]: repellence | Effect on insects [1]: Repellent | effect on whitefly behaviour [2]: did not appear to be repelled | antennal response [3, 9]: 21 (5-30) μV | antennal response [3, 8]: 2.1 mV | stability when exposed to air [6]: rapidly converted to R- and S-curcumene respectively
